Results taken from ChEMBL document CHEMBL3526121, “Pharmacokinetics, bioavailability, tissue distribution, excretion, and metabolite identification of methoxyflavones in Kaempferia parviflora extract in rats” (Drug Metab Dispos, 2012).
Values belong to the compound of their own block, whether it stands above or below them.

How the values were obtained:
[1] = Drug excretion in Wistar rat urine at 750 mg/kg, po after 12 hrs by HPLC-UV analysis; format: ADME, organism-based; design: dose 750 mg/kg, route oral; settings: in vivo
[2] = Drug excretion in Wistar rat feces at 750 mg/kg, po after 12 hrs by HPLC-UV analysis; format: ADME, organism-based; design: dose 750 mg/kg, route oral; settings: in vivo
Kidney = experiment: AUC (0.083 to 4 hrs) in Wistar rat kidney at 750 mg/kg, po by LC-MS/MS analysis; format: ADME, organism-based; design: time 0.083-4 hr, dose 750 mg/kg, route oral; settings: in vivo
Lung = experiment: AUC (0.083 to 4 hrs) in Wistar rat lung at 750 mg/kg, po by LC-MS/MS analysis; format: ADME, organism-based; design: time upper 4 hr, time lower 0.083 hr, dose 750 mg/kg, route oral; settings: in vivo
[3] = Cmax in Wistar rat testes at 750 mg/kg, po by LC-MS/MS analysis; format: ADME, organism-based, Testis; design: dose 750 mg/kg, route oral
[4] = Drug excretion in Wistar rat feces at 750 mg/kg, po after 18 to 24 hrs by HPLC-UV analysis; format: ADME, organism-based; design: dose 750 mg/kg, route oral; settings: in vivo
[5] = Oral bioavailability in Wistar rat at 250 mg/kg by HPLC analysis; format: ADME, organism-based; settings: in vivo
[6] = Tmax in Wistar rat liver at 750 mg/kg, po by LC-MS/MS analysis; format: ADME, organism-based; design: dose 750 mg/kg, route oral
[7] = Cmax in Wistar rat liver at 750 mg/kg, po by LC-MS/MS analysis; format: ADME, organism-based; design: dose 750 mg/kg, route oral
Rattus norvegicus [8] = experiment: Half life in Wistar rat at 250 mg/kg, iv by HPLC analysis; format: ADME, organism-based; design: dose 250 mg/kg, route intravenous; settings: in vivo
Liver = experiment: AUC (0.083 to 4 hrs) in Wistar rat liver at 750 mg/kg, po by LC-MS/MS analysis; format: ADME, organism-based; design: time 0.083-4 hr, dose 750 mg/kg, route oral; settings: in vivo
Rattus norvegicus [9] = experiment: Elimination rate constant in Wistar rat at 250 mg/kg, iv by HPLC analysis; format: ADME, organism-based; design: dose 250 mg/kg, route intravenous; settings: in vivo
[10] = Drug excretion in Wistar rat feces at 750 mg/kg, po after up to 72 hrs by HPLC-UV analysis; format: ADME, organism-based; design: dose 750 mg/kg, route oral; settings: faeces, read-out: Drug excretion
[11] = AUC in Wistar rat at 250 mg/kg, iv by HPLC analysis; format: ADME, organism-based; design: dose 250 mg/kg, route intravenous; settings: plasma
[12] = Clearance in Wistar rat at 250 mg/kg, iv by HPLC analysis; format: ADME, organism-based; design: dose 250 mg/kg, route intravenous; settings: in vivo
[13] = Drug metabolism in Wistar rat assessed as excretion of 2-(3-hydroxy-4-methoxyphenyl)-3,5,7-trimethoxy-4H-chromen-4-one in urine at 750 mg/kg, po by LC-MS and LC-MS/MS analysis; format: ADME, organism-based; design: dose 750 mg/kg, route oral; settings: in vivo
[14] = Drug metabolism in Wistar rat assessed as excretion of 3,5-dihydroxy-2-(3-hydroxy-4-methoxyphenyl)-7-methoxy-4H-chromen-4-one in feces at 750 mg/kg, po by LC-MS and LC-MS/MS analysis; format: ADME, organism-based; design: dose 750 mg/kg, route oral; settings: in vivo
[15] = Drug metabolism in Wistar rat assessed as excretion of 5-hydroxy-2-(3-hydroxy-4-methoxyphenyl)-3,7-dimethoxy-4H-chromen-4-one in urine/feces at 750 mg/kg, po by LC-MS and LC-MS/MS analysis; format: ADME, organism-based; design: dose 750 mg/kg, route oral; settings: in vivo
[16] = Cmax in Wistar rat kidney at 750 mg/kg, po by LC-MS/MS analysis; format: ADME, organism-based; design: dose 750 mg/kg, route oral
[17] = Half life in Wistar rat at 250 mg/kg, po by HPLC analysis; format: ADME, organism-based; design: dose 250 mg/kg, route oral; settings: in vivo
Rattus norvegicus [18] = experiment: Volume of distribution in Wistar rat at 250 mg/kg, po by HPLC analysis; format: ADME, organism-based; design: dose 250 mg/kg, route oral; settings: in vivo
[19] = Elimination rate constant in Wistar rat at 250 mg/kg, po by HPLC analysis; format: ADME, organism-based; design: dose 250 mg/kg, route oral; settings: in vivo, read-out: Ke (converted)
[20] = Drug excretion in Wistar rat urine at 750 mg/kg, po after 24 to 72 hrs by HPLC-UV analysis; format: ADME, organism-based; design: dose 750 mg/kg, route oral; settings: in vivo
[21] = Tmax in Wistar rat brain at 750 mg/kg, po by LC-MS/MS analysis; format: ADME, organism-based; design: dose 750 mg/kg, route oral
[22] = Tmax in Wistar rat at 250 mg/kg, po by HPLC analysis; format: ADME, organism-based; design: dose 250 mg/kg, route oral; settings: in vivo
[23] = Tmax in Wistar rat kidney at 750 mg/kg, po by LC-MS/MS analysis; format: ADME, organism-based; design: dose 750 mg/kg, route oral
[24] = Cmax in Wistar rat at 250 mg/kg, po by HPLC analysis; format: ADME, organism-based; design: dose 250 mg/kg, route oral; settings: in vivo
[25] = AUC in Wistar rat at 250 mg/kg, po by HPLC analysis; format: ADME, organism-based; design: dose 250 mg/kg, route oral; settings: plasma
[26] = Drug excretion in Wistar rat urine at 750 mg/kg, po after up to 72 hrs by HPLC-UV analysis; format: ADME, organism-based; design: dose 750 mg/kg, route oral; settings: read-out: Drug excretion
[27] = Cmax in Wistar rat lung at 750 mg/kg, po by LC-MS/MS analysis; format: ADME, organism-based; design: dose 750 mg/kg, route oral
Brain = experiment: AUC (0.083 to 4 hrs) in Wistar rat brain at 750 mg/kg, po by LC-MS/MS analysis; format: ADME, organism-based; design: time 0.083-4 hr, dose 750 mg/kg, route oral; settings: in vivo
[28] = Cmax in Wistar rat brain at 750 mg/kg, po by LC-MS/MS analysis; format: ADME, organism-based; design: dose 750 mg/kg, route oral
[29] = AUC (0.083 to 4 hrs) in Wistar rat testes at 750 mg/kg, po by LC-MS/MS analysis; format: ADME, organism-based, Testis; design: time 0.083-4 hr, dose 750 mg/kg, route oral; settings: in vivo
[30] = Tmax in Wistar rat lung at 750 mg/kg, po by LC-MS/MS analysis; format: ADME, organism-based; design: dose 750 mg/kg, route oral
[31] = Clearance in Wistar rat at 250 mg/kg, po by HPLC analysis; format: ADME, organism-based; design: dose 250 mg/kg, route oral; settings: in vivo
Rattus norvegicus [32] = experiment: Absorption rate constant in Wistar rat at 250 mg/kg, po by HPLC analysis; format: ADME, organism-based; design: dose 250 mg/kg, route oral; settings: in vivo
[33] = Tmax in Wistar rat testes at 750 mg/kg, po by LC-MS/MS analysis; format: ADME, organism-based, Testis; design: dose 750 mg/kg, route oral
[34] = Drug metabolism in Wistar rat urine/feces treated with 750 mg/kg, po of 5,7,4'-trimethoxyflavone by LC-MS and LC-MS/MS analysis; format: ADME, organism-based; design: dose 750 mg/kg, route oral; settings: in vivo
[35] = Drug metabolism in Wistar rat urine/feces treated with 750 mg/kg, po of 5,7-dimethoxyflavone by LC-MS and LC-MS/MS analysis; format: ADME, organism-based; design: dose 750 mg/kg, route oral; settings: in vivo
[36] = Drug metabolism in Wistar rat urine/feces treated with 750 mg/kg, po of 3,5,7,4'-tetramethoxyflavone by LC-MS and LC-MS/MS analysis; format: ADME, organism-based; design: dose 750 mg/kg, route oral; settings: in vivo
[37] = Drug metabolism in Wistar rat urine/feces treated with 750 mg/kg, po of 3,5,7,3',4'-pentamethoxyflavone by LC-MS and LC-MS/MS analysis; format: ADME, organism-based; design: dose 750 mg/kg, route oral; settings: in vivo

- Drug excretion [1]: Active
- Drug excretion [2]: Active
SMILES: COc1cc(O)c2c(=O)c(OC)c(-c3ccccc3)oc2c1

- Drug metabolism [34]: metabolite_detected
SMILES: COc1ccc(-c2cc(=O)c3c(O)cc(OS(=O)(=O)O)cc3o2)cc1

- Drug metabolism [34]: metabolite_detected
SMILES: COc1ccc(-c2cc(=O)c3c(OS(=O)(=O)O)cc(OC)cc3o2)cc1

- Drug metabolism [35]: metabolite_detected
SMILES: COc1cc(OS(=O)(=O)O)c2c(=O)cc(-c3ccccc3)oc2c1

- Drug metabolism [36]: metabolite_detected
SMILES: COc1ccc(-c2oc3cc(OC)cc(O)c3c(=O)c2O)cc1

Further lines, the compound ahead of its results:

SMILES: COc1cc(OC)c2c(=O)c(OC)c(-c3ccc(OC)c(OC)c3)oc2c1
- AUC (Kidney): 2.03 µg·h/g
- AUC (Lung): 1.6 µg·h/g
- Cmax [3]: 500 ng/g
- Drug excretion [4]: Active
- bioavailability [5]: 3.32%
- Tmax [6]: 3.43 h
- Cmax [7]: 3100 ng/g
- t1/2 (Rattus norvegicus [8]): 2.36 h
- AUC (Liver): 9.07 µg·h/g
- Ke (Rattus norvegicus [9]): 0.61 h⁻¹
- dose excreted at 72 h [10]: 0.79%
- AUC [11]: 76800 ng·h/mL
- clearance [12]: 0.359 mL/min
- Drug excretion [1]: Active
- Drug metabolism [13]: metabolite_detected
- Drug metabolism [14]: metabolite_detected
- Drug metabolism [15]: metabolite_detected
- Cmax [16]: 1000 ng/g
- half-life [17]: 3.12 h
- Vd (Rattus norvegicus [18]): 2637.13 mL
- k el [19]: 7.78e-05 s⁻¹
- Drug excretion [20]: Active
- Tmax [21]: 3.14 h
- Tmax [22]: 1.71 h
- Tmax [23]: 3.43 h
- Cmax [24]: 550 ng/mL
- AUC [25]: 3650 ng·h/mL
- dose excreted at 72 h [26]: 1.06%
- Cmax [27]: 2230 ng/g
- AUC (Brain): 0.76 µg·h/g
- Cmax [28]: 260 ng/g
- AUC [29]: 1.01 µg·h/g
- Tmax [30]: 4.8 min
- CL/F [31]: 10.4 mL/min
- ka (Rattus norvegicus [32]): 1.23 h⁻¹
- Tmax [33]: 2.36 h
- Drug excretion [2]: Active

SMILES: COc1cc(OC)c2c(=O)c(OC)c(-c3ccc(OC)c(O)c3)oc2c1
- Drug metabolism [37]: metabolite_detected

SMILES: COc1ccc(-c2oc3cc(OC)cc(O)c3c(=O)c2OC)cc1
- Drug excretion [1]: Active
- Drug excretion [2]: Active

SMILES: COc1cc(O)c2c(=O)c(OC)c(-c3ccc(OC)c(O)c3)oc2c1 [AYANIN]
- Drug metabolism [37]: metabolite_detected
